The values below come from patent US11718645B2, “Macrocyclic therapeutic agents, methods of manufacture, and methods of treatment” (University of Florida Research Foundation, Incorporated, priority 2014, dated 2023).

One data set concerns HCT116 cells. Nature of the data set: Cell viability assay (MTT). The class given is cell-based, human. The note with it: determined after 48 h (n = 4). As to the method:
(§1) Human colon adenocarcinoma HCT116 cells were purchased from ATCC (Manassas, Va.) and cultured in Dulbecco's modified Eagle's medium (Invitrogen, Carlsbad, Calif.) supplemented with 10% fetal bovine serum (HyClone, Logan, Utah) at 37° C. humidified air and 5% CO2.
HCT116 cells were seeded at a density of 1×10^4 cells per well in 96-well plates. 24 h later the cells were treated with various concentrations of apratoxins or solvent control. After 48 h of incubation, cell viability was detected using MTT according to the manufacturer's instructions (Promega, Madison, Wis.).

The next data set has as its system VEGF-A secretion. The data set can be described thus: Measurement of VEGF-A production (alphaLISA) in HCT116 culture supernatants. The note with it: determined after 12 h (n = 3). The class given is cell-based, human. Here is the method:
as §1
HCT116 cells (1×10^4 cells per well) were seeded in 96-well plates and one day later treated with various concentrations of apratoxins or solvent control. After 12 h of incubation, culture supernatants were collected for detection of VEGF-A by using an alphaLISA kit (PerkinElmer, Waltham, Mass.) following the manufacturer's instructions. Briefly, acceptor bead and anti-VEGF antibody were incubated first with the supernatants for 60 min, donor beads were added later and incubated for another 30 min and then VEGF-A levels detected using Envision (PerkinElmer).
(In Alpha technology, singlet oxygen from a donor bead excites a nearby acceptor bead.)

The next data set in a line: Microsomal stability. The class given is in vitro ADME, mouse. Here is the method: HPLC-MS was done on a 3200 QTRAP (Applied Biosystems) equipped with a Shimadzu (Kyoto, Japan) UFLC System. Mouse serum and harmine were purchased from Sigma-Aldrich. Pooled CD1 mouse liver (female) microsomes were purchased from XenoTech, LCC (Lenexa, Kans.) with protein concentrations of 0.5 mg/ml. HCT116 cell lysates were prepared with PhosphoSafe lysis buffer (Novagen). Protein concentration was determined by using the BCA Assay. Analysis was carried out similarly as previously described [Liu, Y.; Salvador, L. A.; Byeon, S.; Ying, Y.; Kwan, J. C.; Law, B. K.; Hong, J.; Luesch. H. J. Pharmacol. Exp. Ther. 2010, 335, 351-361].
The stability of apratoxin A, S4 (BK), S7 (BL), S8 (BM) and S9 (BN) in the presence of mouse microsomes was determined by using an adaptation of a published procedure [Ackley, D. C.; Rockich, K. T.; Baker, T. R. Optimization in Drug Discovery: In Vitro Methods (Series: Methods in Pharmacology and Toxicology) (eds Yan Z, Caldwell J W) 2004, pp 151-162, Springer, New Jersey]. In brief, microsomes were added to prewarmed phosphate buffer (100 mM, pH 7.4) at 37° C. Apratoxin A, BK, BL, BM, or BN (3 μL) were added to the microsomal preparation followed by NADPH cofactor solution (1.3 mM NADP, 3.3 mM glucose 6-phosphate, 0.4 U/mL glucose-6-phosphate dehydrogenase, 3.3 mM MgCl2). The reaction was allowed to proceed for 3 min to 3 h (7 time points) at 37° C. (thermomixer, 1050 rpm). The reaction was quenched by addition of ethyl acetate and subsequently spiked with harmine. The zero time point was defined by denaturing the microsomes with ethyl acetate before the addition of apratoxins. Incubation of apratoxins with microsomes alone was also performed following the same procedure to determine NADPH-dependent metabolism. The final concentration of the incubation mixture contained 0.5 mg/ml protein concentration and 1 μM apratoxins.
(§2) Analysis of apratoxin A, S4 (BK), S7 (BL), S8 (BM) and S9 (BN) was done by using HPLC-MS [column, Onyx Monolithic C18 (3.0×100 mm), Phenomenex (Torrance, Calif.); solvent, water (solvent A) acetonitrile (solvent B); flow rate, 0.5 ml/min; detection by electrospray ionization-MS in positive ion mode (MRM scan)]. A stepwise gradient elution was used starting at 60% B and 40% A, then increasing to 80% B at 5 min and maintained at this condition for 5 min. Parameters were optimized before analysis by using direct syringe infusion. The retention times (tR, min; MRM ion pair) of the analytes and internal standard are as follows: harmine (2.2; 213.1→169.9), apratoxin A (4.7; 841.4→445.2), apratoxin S4 (BK) (4.1; 828.5→432.2), apratoxin S7 (BL) (4.05; 814.5→418.2), apratoxin S8 (BM) (5.2; 842.5→446.2), apratoxin S9 (BN) (4.9; 828.5→432.2). Compound-dependent parameters used were as follows: apratoxin A, declustering potential (DP) 51, entrance potential (EP) 12, collision energy (CE) 45, collision cell exit potential (CXP) 6, collision cell entrance potential (CEP) 32; and harmine, DP 56.0, EP 4.5, CE 44.0, CXP 5, CEP 16.0. Source gas parameters used were as follows: curtain gas, 15.0; collision gas low, ionspray voltage 5500; temperature, 600.0; ion source gas 150.0; ion source gas 2 60.0.
(§3) Calibration curves for apratoxin A, S4 (BK), S7 (BL), S8 (BM) and S9 (BN) in the presence of mouse serum, HCT116 cell lysates, and aqueous solutions were generated by least-square linear regression analysis of the analyte peak area and internal standard peak area ratio against the nominal concentration of the standard solutions. A linear regression analysis was performed, and the concentration of remaining apratoxins at each time point was determined through interpolation for plasma, cellular, and aqueous stability experiments. The amount of remaining apratoxins with microsome incubation was determined from the peak area ratio of apratoxins at tx (3 min to 3 h) and t0. All calculations were done by using Analyst 1.4.2 (Applied Biosystems) Quantitate Mode.

Data set [1] is described as follows: Plasma stability in mouse serum. The note with it: up to 24 h, FIG. 2C. The class given is in vitro ADME. Here is the method:
In vitro plasma stability of apratoxin A, S4 (BK), S7 (BL), S8 (BM) and S9 (BN) was done by using a modification of a published method [Chen, X.; Gardner, E. R.; Figg, W. D. J. Chromatogr. B Analyt. Technol. Biomed. Life Sci. 2008, 86, 153-158]. Ten microliters of apratoxin A, BK, BL, BM, or BN (25 μg/mL) were added to 100 μL of mouse serum, and the solution was vortex-mixed for 15 s and incubated for 0.25 min to 24 h (11 time points). At the end of each incubation period, 400 μL of ethyl acetate was added to each tube, followed by 200 μL of harmine to quench the reaction and to extract the remaining apratoxin A or S4 (BK), S7 (BL), S8 (BM) and S9 (BN). Samples were further incubated in a thermomixer at 27° C. (750 rpm, 5 min) and later centrifuged for 5 min at 1643 g. The ethyl acetate layer was collected and evaporated to dryness under nitrogen. Samples were reconstituted in 50 μL of acetonitrile. A volume of 10 μL of the reconstituted solution was injected into the HPLC-MS system.
as §2, with “Compound-dependent parameters used were as follows: apratoxin A, declustering potential (DP) 51, entrance potential (EP) 12, collision energy (CE) 45, collision cell exit potential (CXP) 6, collision cell entrance potential (CEP) 32; and harmine, DP 56.0, EP 4.5, CE 44.0, CXP 5, CEP 16.0. Source gas parameters used were as follows: curtain gas, 15.0; collision gas low, ionspray voltage 5500; temperature, 600.0; ion source gas 150.0; ion source gas 2 60.0.” left out
as §3

Data set [2] is described as follows: Cellular stability in HCT116 cell lysate. The class given is in vitro ADME, human. The note with it: HCT116 protein lysate 0.7 mg/mL, up to 24 h, FIG. 2D. Here is the method:
Aliquots of HCT116 cell lysates were diluted with 25 mM Tris-HCl buffer, pH 8.0, to give a final reaction volume of 100 μL and protein concentration of 0.7 mg/mL. Cell lysate solutions were incubated with 10 μL of apratoxin A, BK, BL, BM, or BN (25 μg/mL) for 0.25 min to 24 h (nine time points). Remaining apratoxin A, BK, BL, BM, or BN were extracted from the reaction solution at the end of the incubation periods with ethyl acetate using the same procedure as described for the plasma stability assay.
as §2, §3

Another data set relates to HCT116 xenograft. The note with it: previous efficacious dose 0.25 mg/kg; cited from earlier work.

The IC50 is the midpoint of a concentration-inhibition curve. A low value points to greater potency in that assay.

`CC[C@H](C)[C@H]1C(=O)N2CCC[C@H]2C(=O)O[C@H](C(C)(C)C)C[C@@H](C)C[C@H](O)[C@H](C)C2=N[C@@H](CCC(=O)N[C@@H](Cc3ccc(OC)cc3)C(=O)N(C)[C@@H](C)C(=O)N1C)CS2` [apratoxin S4 (BK), Apratoxin S4]: the IC50 in the data set with HCT116 cells came out at 1.43 nM; in the data set with VEGF-A secretion it was 0.32 nM. Moreover, the “% remaining” value in the data set “Microsomal stability” (microsomes + NADPH, 0 min) is 100%; in “Microsomal stability” (microsomes + NADPH, 3 min), 39.55 ± 1.06%; in “Microsomal stability” (microsomes + NADPH, 5 min), 32.20 ± 16.12%; in the data set “Microsomal stability” (microsomes + NADPH, 15 min) it was 10.07 ± 1.46%; in “Microsomal stability” (microsomes + NADPH, 30 min), 9.58 ± 1.03%; in the data set “Microsomal stability” (microsomes + NADPH, 60 min), 10.00 ± 0.71%. Moreover, the “% remaining” value in the data set “Microsomal stability” (microsomes + NADPH, 120 min) is reported as 6.02 ± 2.11%; in “Microsomal stability” (microsomes only, 0 min), 100%; in the data set “Microsomal stability” (microsomes only, 3 min), 87.05 ± 1.63%; in the data set “Microsomal stability” (microsomes only, 5 min) it was 70.80 ± 23.48%; in the data set “Microsomal stability” (microsomes only, 15 min), 87.20 ± 2.83%; in the data set “Microsomal stability” (microsomes only, 30 min), 73.85 ± 15.49%. Moreover, the “% remaining” value in “Microsomal stability” (microsomes only, 60 min) is 87.10 ± 1.41%; in “Microsomal stability” (microsomes only, 120 min), 55.25 ± 12.09%. Besides, the plasma stability entry in data set [1] was “excellent”. Further, the cellular stability entry in data set [2] is on record as “excellent”. Moreover, the “in vivo activity (previous study)” value in the data set with HCT116 xenograft was “extremely potent and active in vivo”.
